Drawing on US6399643B1, “Spiroimidazolidine derivatives, their preparation, their use and pharmaceutical preparations formed therefrom” (Aventis Pharma Deutschland GmbH, priority 1999, dated 2002), this text covers IC50 for 9 compounds.

Structures can show the parent of a compound that is named as a salt.

The term IC50 denotes the concentration that inhibits the measured activity by half.

T1 sequence (P13612 34-1032): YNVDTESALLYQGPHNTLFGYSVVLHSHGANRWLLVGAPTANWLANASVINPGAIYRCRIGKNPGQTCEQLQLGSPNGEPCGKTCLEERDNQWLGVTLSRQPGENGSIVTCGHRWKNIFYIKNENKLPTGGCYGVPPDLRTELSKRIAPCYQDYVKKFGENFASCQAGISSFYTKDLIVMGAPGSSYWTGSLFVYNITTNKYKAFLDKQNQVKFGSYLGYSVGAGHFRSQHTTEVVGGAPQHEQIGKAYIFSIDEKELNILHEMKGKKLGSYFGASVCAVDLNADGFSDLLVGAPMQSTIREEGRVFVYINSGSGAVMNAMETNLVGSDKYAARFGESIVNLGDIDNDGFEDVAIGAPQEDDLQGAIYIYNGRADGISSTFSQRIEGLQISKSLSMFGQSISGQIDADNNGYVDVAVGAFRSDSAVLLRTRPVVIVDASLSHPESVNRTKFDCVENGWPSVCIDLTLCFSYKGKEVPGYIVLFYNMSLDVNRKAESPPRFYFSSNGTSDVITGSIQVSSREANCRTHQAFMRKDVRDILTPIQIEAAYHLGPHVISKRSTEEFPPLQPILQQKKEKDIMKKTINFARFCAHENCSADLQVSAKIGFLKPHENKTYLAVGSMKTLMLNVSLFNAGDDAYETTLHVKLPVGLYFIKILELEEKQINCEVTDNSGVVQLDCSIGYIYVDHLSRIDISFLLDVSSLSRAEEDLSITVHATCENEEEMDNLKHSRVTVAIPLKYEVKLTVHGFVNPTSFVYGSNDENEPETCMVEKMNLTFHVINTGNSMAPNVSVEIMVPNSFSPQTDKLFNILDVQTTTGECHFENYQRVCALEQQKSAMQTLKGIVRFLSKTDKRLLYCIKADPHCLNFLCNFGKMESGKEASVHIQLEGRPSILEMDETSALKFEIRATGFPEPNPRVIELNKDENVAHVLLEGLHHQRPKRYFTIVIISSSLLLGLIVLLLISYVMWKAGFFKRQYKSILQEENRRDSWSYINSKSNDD
T1 sequence (P05556 21-798): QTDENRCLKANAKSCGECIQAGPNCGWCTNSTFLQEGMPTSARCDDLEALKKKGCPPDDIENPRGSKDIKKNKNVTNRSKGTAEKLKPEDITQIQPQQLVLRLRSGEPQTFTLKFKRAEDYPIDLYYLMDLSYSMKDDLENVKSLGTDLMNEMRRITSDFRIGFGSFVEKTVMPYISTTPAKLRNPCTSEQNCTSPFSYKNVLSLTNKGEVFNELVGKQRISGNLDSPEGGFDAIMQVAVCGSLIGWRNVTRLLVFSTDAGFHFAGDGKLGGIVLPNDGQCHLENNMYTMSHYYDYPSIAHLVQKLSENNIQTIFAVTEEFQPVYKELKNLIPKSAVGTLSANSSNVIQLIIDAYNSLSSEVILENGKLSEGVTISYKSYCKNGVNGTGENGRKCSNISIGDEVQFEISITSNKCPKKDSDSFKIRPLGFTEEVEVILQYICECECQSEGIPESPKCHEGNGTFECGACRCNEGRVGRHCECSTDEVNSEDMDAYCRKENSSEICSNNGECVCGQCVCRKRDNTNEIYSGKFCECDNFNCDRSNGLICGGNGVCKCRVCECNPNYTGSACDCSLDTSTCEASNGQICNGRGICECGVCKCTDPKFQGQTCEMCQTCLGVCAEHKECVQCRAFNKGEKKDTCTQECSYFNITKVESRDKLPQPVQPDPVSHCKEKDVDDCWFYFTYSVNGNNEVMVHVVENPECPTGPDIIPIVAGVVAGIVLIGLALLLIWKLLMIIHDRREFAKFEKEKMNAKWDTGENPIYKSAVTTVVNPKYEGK

The assay concerns the target T1, interaction between VCAM-1 and VLA-4 (Homo sapiens, UniProt P05556+P13612).
T1 construct: supplied in their natural form as surface molecules on human U937 cells; host or cells: human U937 cells (VLA-4, endogenous); the partner hVCAM-1(1-3)-IgG was made in house in transfected COS cells (ATCC CRL1651) and used as culture supernatant
Briefly: U937/VCAM-1 cell adhesion test (adhesion of U937 cells to hVCAM-1(1-3)-IgG). Type of assay: cell-based. The note with it: inhibition of adhesion of human U937 cells (ATCC CRL 1593) to hVCAM-1(1-3)-IgG. The text has this:
A) U937/VCAM-1 Cell Adhesion Test
The test method used for the activity of the compounds of the formula I on the interaction between VCAM-1 and VLA-4 is the assay described below, which is specific for this interaction. The cellular binding components, that is the VLA-4 integrins, are supplied in their natural form as surface molecules on human U937 cells (ATCC CRL 1593), which belong to the leukocytes group. The specific binding components used are genetically engineered recombinant soluble fusion proteins, consisting of the extracytoplasmic domain of human VCAM-1 and the constant region of a human immunoglobulin of the subclass IgG1.
Assay for the Measurement of the Adhesion of U937 Cells (ATCC CRL 1593) to hVCAM-1 (1-3)-IgG
1. Preparation of Human VCAM-1(1-3)-IgG and Human CD4-IgG
A genetic construct for the expression of the extracellular domain of human VCAM-1, combined with the genetic sequence of the heavy chain of human immunoglobulin IgG1 (hinge, CH2 and CH3 regions) (from Brian Seed, Massachusetts General Hospital, Boston, USA; cf. Damle and Aruffo, Proc. Natl. Acad. Sci. USA 1991, 88, 6403), was employed. The soluble fusion protein hVCAM-1(1-3)-IgG contained the three aminoterminal extracellular immunoglobulin-like domains of human VCAM-1 (Damle and Aruffo, Proc. Natl. Acad. Sci. USA 1991, 88, 6403). CD4-IgG (Zettlmeissl et al., DNA and Cell Biology 1990, 9, 347) served as a fusion protein for negative controls. The recombinant proteins were expressed as soluble proteins after DEAE/dextran-mediated DNA transfection in COS cells (ATCC CRL1651) according to standard procedures (Ausubel et al., Current protocols in molecular biology, John Wiley & Sons, Inc., 1994).
2. Assay for the Measurement of the Adhesion of U937 Cells to hVCAM-1(1-3)-IgG
2.1 96-well microtiter test plates (Nunc Maxisorb) were incubated at room temperature for 1 hour with 100 μl/well of a goat-anti-human IgG antibody solution (10 μg/ml in 50 mM tris, pH 9.5). After removal of the antibody solution, washing was carried out once with PBS.
2.2 150 μl/well of a blocking buffer (1% BSA in PBS) were incubated on the plates at room temperature for 0.5 hour. After removal of the blocking buffer, washing was carried out once with PBS.
2.3 100 μl per well of a cell culture supernatant of transfected COS cells were incubated on the plates at room temperature for 1.5 hours. The COS cells were transfected with a plasmid which codes for the three N-terminal immunoglobulin-like domains of VCAM-1, coupled to the Fc portion of human IgG1 (hVCAM-1 (1-3)-IgG). The content of hVCAM-1(1-3)-IgG was about 0.5-1 μg/ml. After removing the culture supernatant, washing was carried out once with PBS.
2.4 The plates were incubated at room temperature for 20 minutes with 100 μl/well of Fc receptor blocking buffer (1 mg/ml of γ-globulin, 100 mM NaCl, 100 μM MgCl2, 100 μM MnCl2, 100 μM CaCl2, 1 mg/ml of BSA in 50 mM HEPES, pH 7.5). After removal of the Fc receptor blocking buffer, washing was carried out once with PBS.
2.5 20 μl of binding buffer (100 μM NaCl, 100 μM MgCl2, 100 μM MnCl2, 100 μM CaCl2, 1 mg/ml of BSA in 50 mM HEPES, pH 7.5) were initially introduced, and the substances to be tested were added in 10 μl of binding buffer and incubated for 20 minutes. The controls used were antibodies against VCAM-1(BBT, No. BBA6) and against VLA-4(Immunotech, No. 0764).
2.6 U937 cells were incubated in Fc receptor blocking buffer for 20 minutes and then pipetted in at a concentration of 1×10^6/ml and in an amount of 100 μl per well ([…]).
2.7 The plates were slowly immersed at an angle of 45° in stop buffer (100 mM NaCl, 100 μM MgCl2, 100 μM MnCl2, 100 μM CaCl2 in 25 mM Tris, pH 7.5) and shaken off. The process was repeated.
2.8 50 μl/well of a dye solution ([…] of Hoechst Dye 33258, 4% formaldehyde, 0.5% Triton X-100 in PBS) were then incubated on the plates for 15 minutes. […]
`COc1ccc([C@H](CC(=O)O)NC(=O)[C@H](CC2CC2)N2C(=O)N(Cc3ccc(NC(=O)Nc4ccccc4C)cc3)C3(CCCCC3)C2=O)c(OC)c1` [Example 40, (S)-3-((S)-2-(4,4-Pentamethylene-3-(4-(3-(2-methylphenyl)ureido)benzyl)-2,5-dioxoimidazolidin-1-yl)-2-cyclopropylmethylacetylamino)-3-(2,4-dimethoxyphenyl)propionic acid]: inhibition was half-maximal at 2.1 nM (IC50). Compound `CC(C)C[C@@H](C(=O)N[C@@H](CC(=O)O)c1ccccc1)N1C(=O)N(Cc2ccc(NC(=O)Nc3ccccc3)cc2)C2(CCCCC2)C1=O` [Example 1, (S)-3-((S)-2-(4,4-Pentamethylene-3-(4-(3-phenylureido)benzyl)-2,5-dioxoimidazolidin-1-yl)-2-(2-methylpropyl)acetylamino)-3-phenylpropionic acid] gave an IC50 of 3.2 nM.

As for `COc1ccc([C@H](CC(=O)O)NC(=O)[C@H](CC(C)C)N2C(=O)N(Cc3ccc(NC(=O)Nc4ccccc4C)cc3)C3(CCCCC3)C2=O)cc1OC` [Example 33, (S)-3-((S)-2-(4,4-Pentamethylene-3-(4-(3-(2-methylphenyl)ureido)benzyl)-2,5-dioxoimidazolidin-1-yl)-2-(2-methylpropyl)acetylamino)-3-(3,4-dimethoxyphenyl)propionic acid sodium salt], the IC50 amounted to 1.3 nM.

With `Cc1ccccc1NC(=O)Nc1ccc(CN2C(=O)N([C@@H](CC(C)C)C(=O)N[C@H](C)CC(=O)O)C(=O)C23CCCCC3)cc1` [Example 9, (R)-3-((S)-2-(4,4-Pentamethylene-3-(4-(3-(2-methylphenyl)ureido)benzyl)-2,5-dioxoimidazolidin-1-yl)-2-(2-methylpropyl)acetylamino)-3-methylpropionic acid], the IC50 was 2.2 nM. The same measure for `COc1cccc([C@H](CC(=O)O)NC(=O)[C@H](CC(C)C)N2C(=O)N(Cc3ccc(NC(=O)Nc4ccccc4)cc3)C3(CCCCC3)C2=O)c1` [Example 22, (S)-3-((S)-2-(4,4-Pentamethylene-3-(4-(3-phenylureido)benzyl)-2,5-dioxoimidazolidin-1-yl)-2-(2-methylpropyl)acetylamino)-3-(3-methoxyphenyl)propionic acid]: 6.7 nM; for `COc1ccc([C@H](CC(=O)O)NC(=O)[C@H](CC(C)C)N2C(=O)N(Cc3ccc(NC(=O)Nc4ccccc4)cc3)C3(CCCCC3)C2=O)cc1OC` [Example 21, (S)-3-((S)-2-(4,4-Pentamethylene-3-(4-(3-phenylureido)benzyl)-2,5-dioxoimidazolidin-1-yl)-2-(2-methylpropyl)acetylamino)-3-(3,4-dimethoxyphenyl)propionic acid tromethamine salt]: 3 nM; for `COc1cccc([C@H](CC(=O)O)NC(=O)[C@H](CC(C)C)N2C(=O)N(Cc3ccc(NC(=O)Nc4ccccc4C)cc3)C3(CCCCC3)C2=O)c1` [Example 25, (S)-3-((S)-2-(4,4-Pentamethylene-3-(4-(3-(2-methylphenyl)ureido)benzyl)-2,5-dioxoimidazolidin-1-yl)-2-(2-methylpropyl)acetylamino)-3-(3-methoxyphenyl)propionic acid]: 1.1 nM. The same measure for `COc1ccc([C@H](CC(=O)O)NC(=O)[C@H](CC(C)C)N2C(=O)N(Cc3ccc(NC(=O)Nc4ccccc4)cc3)C3(CCCCC3)C2=O)cc1` [Example 17, (S)-3-((S)-2-(4,4-Pentamethylene-3-(4-(3-phenylureido)benzyl)-2,5-dioxoimidazolidin-1-yl)-2-(2-methylpropyl)acetylamino)-3-(4-methoxyphenyl)propionic acid tromethamine salt]: 1.9 nM; for `COc1ccc([C@H](CC(=O)O)NC(=O)[C@H](CC(C)C)N2C(=O)N(Cc3ccc(NC(=O)Nc4ccccc4C)cc3)C3(CCCCC3)C2=O)c(OC)c1` [Example 29, (S)-3-((S)-2-(4,4-Pentamethylene-3-(4-(3-(2-methylphenyl)ureido)benzyl-2,5-dioxoimidazolidin-1-yl)-2-(2-methylpropyl)acetylamino)-3-(2,4-dimethoxyphenyl)propionic acid tromethamine salt]: 1.9 nM.
